Experimental findings from publication PMC12548092, “Exploring Helical Fraying Linked to Dynamics and Catalysis in Adenylate Kinase” (Biochemistry, 2025) are described below.

The test has as its target T1, hAK1 (Homo sapiens, UniProt P00568).
T1 construct: gene AK1; pET24d, E. coli BL21 (DE3), Blue Sepharose and size exclusion; 15N/13C-labelled
T1 sequence (P00568 1-194): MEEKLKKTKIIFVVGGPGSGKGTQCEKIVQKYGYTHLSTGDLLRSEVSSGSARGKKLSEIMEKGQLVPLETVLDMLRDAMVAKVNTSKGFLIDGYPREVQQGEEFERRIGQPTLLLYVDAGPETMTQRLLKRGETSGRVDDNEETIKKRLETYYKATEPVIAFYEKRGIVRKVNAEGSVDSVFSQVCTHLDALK
The test is described as follows: NMR backbone assignment and […] relaxation order parameters. Type of test: binding. The conditions noted are these: 30 mM MES, 50 mM NaCl, pH 5.5 (assignment), 298 K.

As to `Nc1ncnc2c1ncn2[C@@H]1O[C@H](COP(=O)(O)OP(=O)(O)OP(=O)(O)OP(=O)(O)OP(=O)(O)OC[C@H]2O[C@@H](n3cnc4c(N)ncnc43)[C@H](O)[C@@H]2O)[C@@H](O)[C@H]1O` [Ap5A], the “NMR backbone assignment and 15N relaxation order parameters” value is recorded as “one helical turn in the α-helix at the N-terminus of the catalytic loop”.
